The assay addresses phosphorylated form of full length BTK (active BTK) (Homo sapiens (Human), UniProt Q06187). Kind of assay: Mobility shift assay (MSA, Caliper LabChip), active BTK assay. In kind it is biochemical. The note with it: Assay type B (MSA using active BTK).

Sequence of phosphorylated form of full length BTK (active BTK) (Q06187 whole entry): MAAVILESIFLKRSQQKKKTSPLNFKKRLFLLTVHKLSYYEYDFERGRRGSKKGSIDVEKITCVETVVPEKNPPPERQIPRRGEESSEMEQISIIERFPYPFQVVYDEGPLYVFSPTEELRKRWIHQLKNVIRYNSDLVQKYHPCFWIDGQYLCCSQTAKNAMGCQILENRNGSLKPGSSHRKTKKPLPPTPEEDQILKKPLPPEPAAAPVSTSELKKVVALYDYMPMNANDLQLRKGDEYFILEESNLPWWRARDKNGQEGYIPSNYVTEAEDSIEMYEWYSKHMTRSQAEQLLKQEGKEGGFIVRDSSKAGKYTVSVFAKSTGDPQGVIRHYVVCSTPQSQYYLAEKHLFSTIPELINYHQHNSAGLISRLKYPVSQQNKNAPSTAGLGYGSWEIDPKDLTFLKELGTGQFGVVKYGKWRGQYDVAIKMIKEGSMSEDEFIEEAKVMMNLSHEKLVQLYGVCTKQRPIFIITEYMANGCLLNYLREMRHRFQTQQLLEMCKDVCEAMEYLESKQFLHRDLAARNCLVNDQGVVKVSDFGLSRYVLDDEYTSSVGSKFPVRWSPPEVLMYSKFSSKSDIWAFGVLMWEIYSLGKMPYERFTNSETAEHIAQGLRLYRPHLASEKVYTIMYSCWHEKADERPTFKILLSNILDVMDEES

Broadly, the IC50 is the concentration at which inhibition is half-maximal. As for `CC1(N)CN([C@H]2CC[C@@H](Nc3ncnc4[nH]cc(C(=O)c5ccccc5Cl)c34)CC2)C1` [Compound I-113, (4-((cis-4-(3-amino-3-methylazetidin-1-yl)cyclohexyl)amino)-7H-pyrrolo[2,3-d]pyrimidin-5-yl)(2-chlorophenyl)methanone], the IC50 is 3.6 nM.
Take `C[C@H](NC(=O)[C@@H](C)O)[C@@H]1CC[C@@H](Nc2ncnc3[nH]cc(C(=O)c4ccc(Oc5ccccc5)cc4Cl)c23)CO1` [Compound I-213, (R)—N—((S)-1-((2S,5R)-5-((5-(2-chloro-4-phenoxybenzoyl)-7H-pyrrolo[2,3-d]pyrimidin-4-yl)amino)tetrahydro-2H-pyran-2-yl)ethyl)-2-hydroxypropanamide]: the IC50 is 2.5 nM.
Regarding `CC(=O)N[C@@H]1CC[C@@H](Nc2ncnc3[nH]cc(C(=O)c4ccc(Oc5ccccc5)cc4)c23)C1` [Compound I-192, N-((1R,3R)-3-((5-(4-phenoxybenzoyl)-7H-pyrrolo[2,3-d]pyrimidin-4-yl)amino)cyclopentyl)acetamide], the IC50 came out at 4.4 nM.
In the case of `CC(=O)N[C@@H](C)[C@@H]1CC[C@@H](Nc2ncnc3[nH]cc(C(=O)c4ccc(Oc5ccccc5)cc4)c23)CO1` [Compound I-198, N-((S)-1-((2S,5R)-5-((5-(4-phenoxybenzoyl)-7H-pyrrolo[2,3-d]pyrimidin-4-yl)amino)tetrahydro-2H-pyran-2-yl)ethyl)acetamide], the IC50 turned out to be 2.6 nM.
With `C[C@@H](O)[C@@H](CO)NC(=O)[C@@H]1CC[C@@H](Nc2ncnc3[nH]cc(C(=O)c4ccc(Oc5ccccc5)cc4)c23)CO1` [Compound I-175, (2S,5R)—N-((2R,3R)-1,3-dihydroxybutan-2-yl)-5-((5-(4-phenoxybenzoyl)-7H-pyrrolo[2,3-d]pyrimidin-4-yl)amino) tetrahydro-2H-pyran-2-carboxamide], the IC50 is 3.1 nM.
With `C[C@H](O)C(=O)N[C@@H](C)[C@@H]1CC[C@@H](Nc2ncnc3[nH]cc(C(=O)c4ccc(Oc5ccccc5)cc4)c23)CO1` [Compound I-209, (S)-2-hydroxy-N-((S)-1-((2S,5R)-5-((5-(4-phenoxybenzoyl)-7H-pyrrolo[2,3-d]pyrimidin-4-yl)amino)tetrahydro-2H-pyran-2-yl)ethyl)propanamide] the figure was 4 nM.
`C[C@@H](O)C(=O)NC[C@@H]1CC[C@@H](Nc2ncnc3[nH]cc(C(=O)c4ccc(Oc5ccccc5)cc4Cl)c23)CO1` [Compound I-216, (R)—N-(((2S,5R)-5-((5-(2-chloro-4-phenoxybenzoyl)-7H-pyrrolo[2,3-d]pyrimidin-4-yl)amino)tetrahydro-2H-pyran-2-yl)methyl)-2-hydroxypropanamide]: the IC50 came to 1.9 nM.
For `COC[C@]1(O)CC[C@@H](Nc2ncnc3[nH]cc(C(=O)c4ccccc4Cl)c23)CC1` [Compound I-108, (2-chlorophenyl)(4-((cis-4-hydroxy-4-(methoxymethyl)cyclohexyl)amino)-7H-pyrrolo[2,3-d]pyrimidin-5-yl)methanone], the IC50 was determined as 7 nM.

For the origin of these results see patent publication US11020398B2, “Amino-pyrrolopyrimidinone compounds and methods of use thereof” (ArQule, Inc., priority 2016, dated 2021).
